# Results taken from US20120045501A1, “CONNEXIN ENHANCES CHEMOTHERAPY-INCLUDED APOPTOSIS IN HUMAN CANCER CELLS INHIBITING TUMOR CELL PROLIFERATION” (Northwest Hospital, priority 2001, published 2012).
# Experiments:
# [1] = tested on: U251N23 cells; assay: MTT cell viability assay; assay type: cell-based; conditions: Homo sapiens, 144 h, day 6 after treatment, U251N23 (control-transfected)
# Protocol: In vitro viability was determined by the 3-(4,5-dimethylthiazol-2yl)-2,5-diphenyltetrazolium bromide (MTT) colorimetric assay as described in (Huang et al., Cancer Res. 55:5054-5062 (1995)). Cells (1×10^3) were plated in triplicate in 96 well microplates overnight and treated with 5 different concentrations of VP16, Tax and DOX, respectively. […] Absorbance values at 570 nm were plotted as a measure of the relative number of cells. […] Both methods gave the identical results.
# (§1) Values at OD 570 reflect the relative number of viable cells.
# [2] = tested on: U251cx43-216 cells; assay: MTT cell viability assay; conditions: Homo sapiens, 144 h
# [3] = tested on: U251N23 cells; assay: Clonogenicity (cell survival) assay; assay type: cell-based, human
# Protocol: (§2) The surviving cell fraction was determined by clonogenicity assay as previously described (Huang et al., J. Cell Biol. 133:211-220 (1996)). Cells were seeded at a density of 500 cells per 60 mm plate and incubated overnight and then treated with drugs; culture was then continued for 3 weeks. Clones were fixed in 4% formaldehyde-PBS and stained with Giemsa solution. Colonies containing more than 50 cells were counted and the fraction of surviving cells was calculated. The results represented the average of three separate experiments.
# as §1
# [4] = tested on: U251cx43-216 cells; assay: Clonogenicity (cell survival) assay; assay type: cell-based, human
# Protocol: as §2, §1
# [5] = tested on: U251N23 cells; assay: Gap junction communication, Lucifer yellow dye transfer; assay type: cell-based, human; conditions: U251N23, GA 25 μM
# Protocol: (§3) Gap junctional communication (GJC) was assayed by transfer of the fluorescent Lucifer yellow (LY) after single-cell micro-injection, as described previously (Huang et al., Cancer Res. 58:5089-5096 (1998)). Cells were observed under a fluorescence-inverted microscope after micro-injection at the given time points, and the number of neighboring cells labeled with fluorescent dye was recorded.
# (§4) It was next determined whether cx43-mediated apoptosis was related to gap junctional communication (GJC). […] Since Lucifer yellow dye transfer may not accurately reflect the ability of intracellular substances to pass through gap junctions, apoptosis was examined in response to VP16 in the presence of α-Glycyrrhetinic acid (GA), which inhibits GJC (Davidson et al., Biochem. Biophys. Res. Commun. 134:29-36 (1986); Davidson and Baumgarten, J. Pharmacol. Exp. Ther. 266:1104-1107 (1988)). […] Consistent with previous studies, both cx43- and control-transfected cells poorly communicated each other as examined by Lucifer yellow dye transfer experiment. The effect of GA was not obvious due to poor GJC in untreated U251 cells. […] Thus, the difference in apoptosis is probably due to the presence of cx43 itself rather than GJC. Furthermore, cx43-transfected cells expressed only non-phosphorylated cx43 in both mock- and VP 16-treated cells. In contrast, when the same experimental procedure was used to detect cx43 in primary astrocytes and T51B cells, several phosphorylated isoforms were clearly observed (Huang et al., Cancer Res. 58:5089-5096 (1998)). It is generally believed that phosphorylated forms of cx43 are involved in GJC (Hossain et al., J. Cell Physiol. 174:66-77 (1998)). Therefore it is likely that cx43-mediated apoptosis in response to VP16 is not related to its gap junctional communication effect.
# [6] = tested on: U251cx43-216 cells; assay: as above; assay type: cell-based, human; conditions: U251cx43-216, GA 25 μM
# Protocol: as §3, §4
# [7] = tested on: T51B rat liver epithelial cells; assay: as above; assay type: cell-based
# Protocol: as §3
# as §4, with “In contrast, when the same experimental procedure was used to detect cx43 in primary astrocytes and T51B cells, several phosphorylated isoforms were clearly observed (Huang et al., Cancer Res. 58:5089-5096 (1998)). It is generally believed that phosphorylated forms of cx43 are involved in GJC (Hossain et al., J. Cell Physiol. 174:66-77 (1998)). Therefore it is likely that cx43-mediated apoptosis in response to VP16 is not related to its gap junctional communication effect.” left out
# [8] = tested on: cx43- or control-transfected cells; assay: Apoptosis in response to VP16 in the presence of GA; assay type: cell-based, human; conditions: cx43- and control-transfected cells
# Excerpt: as §4, with “Therefore it is likely that cx43-mediated apoptosis in response to VP16 is not related to its gap junctional communication effect.” left out
# [9] = tested on: Cx43-transfected cells (U251cx43-216 and U251cx43-217); assay: Apoptosis by Hoechst dye staining after Tax; assay type: cell-based, human
# Protocol: (§5) The assay was performed as we previously described (Huang et al., Cell Death Differ. 5:96-106 (1998)). Briefly, cells were fixed in Carnoy's solution (methanol:glacial […]; 3:1) and stained with 5 μg/ml of bisbenzimide trihydrochloride (Hoechst 33258) for 20 min. The morphology of nuclei was then observed with a Zeiss (Thornwood, N.Y.) photomicroscope II. At least 500 nuclei in each cell line were counted. Experiments were repeated four times.
# (§6) Cx43-transfected cells (U251cx43-216 and U251cx43-217) and control-transfected cells (U251N2 and U251N23) were treated with different concentrations of Tax (0, 10^−9, and 4×10^−9). Four days after treatment, cells were analyzed for apoptosis by Hoechst dye staining.
# [10] = tested on: control-transfected cells (U251N2 and U251N23); assay: Apoptosis by Hoechst dye staining after Tax; assay type: cell-based, human; conditions: 4×10^−9 M, four days after treatment
# Protocol: as §5, §6
# [11] = tested on: cx43-transfected cells; assay: Cell proliferation in presence of cytokine or conditioned medium; assay type: cell-based, human
# Protocol: The experiment was performed as described in Huang et al., (Cancer Res. 55:5054-5062 (1995); and Oncogene 10:467-475 (1995)). Briefly, cells were seeded in 96-well plates. 24 hr later, cells were incubated in the presence of cytokine or conditioned medium for 48 hours. 0.5 μCi of ^3H-thymidine was added to each well and incubation was continuous for 24 hr. The incorporated ^3H-thymidine was then determined by a scintillation counter.
# The down-regulation of MCP-1 in cx43-transfected cells raised the question of whether reversion of the transformed phenotype in cx43-transfected cell was mediated by the reduction of MCP-1 expression. To test this possibility, anti-MCP-1 neutralization antibody was added into the tissue culture medium to block the MCP-1 activity and to examine the cell proliferation by CyQUANT cell proliferation assay.
# [12] = tested on: U251cx43-217 cells; assay: Soft agar colony formation assay; assay type: cell-based, human
# Protocol: (§7) Soft agar assay were performed as described previously (Huang, et al., Cancer Res. 58:5089-5096 (1998); Huang, et al., Mol. Carcinog. 30:209-217 (2001); Huang, et al., Carcinogenesis 20:485-492 (1999)). Briefly, cx43-transfected cells and control-transfected cells were assayed by seeding 1,000 cells in 0.26% agar medium into 6 well plates previously lined with 0.65% agar medium. The plates (in duplicate and repeated twice) were cultured for 3-4 weeks in the presence of different treatments and then stained with p-iodotetrazolium violet for overnight before photography and counting. Colony size equal to or greater than 15,625 μm^2 was scored as positive.
# (§8) To examine the effect of down-regulation of MCP-1 on the transformed growth, cx43-transfected and control-transfected clones were assayed for their anchorage-independent growth in soft agar in the presence of MCP-1.
# [13] = tested on: U251cx43-216 cells; assay: Soft agar colony formation assay; assay type: cell-based, human
# Protocol: as §7, §8
# [14] = tested on: Cx43-transfected clones and control-transfected clones; assay: Apoptosis in the presence of MCP-1 or anti-MCP-1 antibody; assay type: cell-based, human; conditions: normal culture conditions, low serum conditions or in response to chemotherapeutic drugs
# Protocol: Cx43-transfected clones and control-transfected clones were assayed for apoptosis in the presence of MCP-1 or anti-MCP-1 antibody. […] Therefore, enhanced apoptosis under low serum conditions and decreased cell growth in cx43-transfected cells involves at least two separate pathways.
# [15] = U251cx43-216, 1 × 10^−9, 3 weeks
# [16] = U251cx43-216, 4 × 10^−9, 3 weeks
# [17] = U251cx43-216, 4 × 10^−10, 3 weeks
molecule,measurement,setting,value
"COc1cccc2c1C(=O)c1c(O)c3c(c(O)c1C2=O)C[C@@](O)(C(=O)CO)C[C@@H]3O[C@H]1C[C@H](N)[C@H](O)[C@H](C)O1 [DOX, Doxorubicin]",IC50,[1],1.77 nM
same,IC50,[2],0.82 nM
same,Colony formation (colonies counted),"[3]; U251N23, 1 × 10^−9, 3 weeks",15 +/− 5
same,Colony formation (colonies counted),"[3]; U251N23, 4 × 10^−9, 3 weeks",6 +/− 0
same,Colony formation (colonies counted),"[3]; U251N23, 4 × 10^−10, 3 weeks",147 +/− 14
same,Colony formation (colonies counted),[4]; [15],6 +/− 1
same,Colony formation (colonies counted),[4]; [16],2 +/− 3
same,Colony formation (colonies counted),[4]; [17],70 +/− 6
"CC1(C)[C@@H](O)CC[C@]2(C)[C@H]3C(=O)C=C4[C@@H]5C[C@@](C)(C(=O)O)CC[C@]5(C)CC[C@@]4(C)[C@]3(C)CC[C@@H]12 [GA, α-Glycyrrhetinic acid]",No. of Fluorescent Neighboring cells after GA treatment,[5]; 5 min,0.7 +/− 1.1
same,No. of Fluorescent Neighboring cells after GA treatment,[5]; 24 h,2.2 +/− 3.7
same,No. of Fluorescent Neighboring cells after GA treatment,[5]; 48 h,0.9 +/− 1.9
same,No. of Fluorescent Neighboring cells after GA treatment,[5]; 72 h,2.4 +/− 4.1
same,No. of Fluorescent Neighboring cells after GA treatment,[6]; 5 min,0.6 +/− 1.3
same,No. of Fluorescent Neighboring cells after GA treatment,[6]; 24 h,0 +/− 0
same,No. of Fluorescent Neighboring cells after GA treatment,[6]; 48 h,0.6 +/− 1.1
same,No. of Fluorescent Neighboring cells after GA treatment,[6]; 72 h,0.1 +/− 0.3
same,effect on GJC,[7]; T51B cells,completely blocked GJC
same,No. of Fluorescent Neighboring cells after GA treatment,"[7]; T51B, GA 25 μM, 5 min",0 +/− 0
same,alteration of apoptosis in response to VP16 in the presence of α-Glycyrrhetinic acid,[8],No significant alteration of apoptosis
"CC(=O)O[C@H]1C(=O)[C@@]2(C)[C@H]([C@H](OC(=O)c3ccccc3)[C@]3(O)C[C@H](OC(=O)[C@H](O)[C@@H](NC(=O)c4ccccc4)c4ccccc4)C(C)=C1C3(C)C)[C@]1(OC(C)=O)CO[C@@H]1C[C@@H]2O [Tax, Paclitaxel]","increase in apoptosis, cx43-expressing vs control-transfected cells","[9]; Tax treatment, four days",3- to 4 fold
same,cells displaying typical features of apoptosis,"[9]; cx43-transfected cells, 4×10^−9 M, four days after treatment",about 65%
same,apoptotic cells,[10],about 17%
same,IC50,[1],1.5 nM
same,IC50,[2],0.71 nM
same,Colony formation (colonies counted),"[3]; U251N23, 1 × 10^−9, 3 weeks",37 +/− 6
same,Colony formation (colonies counted),"[3]; U251N23, 4 × 10^−9, 3 weeks",16 +/− 2
same,Colony formation (colonies counted),"[3]; U251N23, 4 × 10^−10, 3 weeks",108 +/− 9
same,Colony formation (colonies counted),[4]; [15],9 +/− 5
same,Colony formation (colonies counted),[4]; [16],4 +/− 3
same,Colony formation (colonies counted),[4]; [17],54 +/− 5
MCP-1: Monocyte chemotactic protein-1 (MCP-1) is a member of the CC chemokine family,effect on cell proliferation rate,[11],specifically stimulated
same,Colony formation in soft agar,"[12]; U251cx43-217, MCP-1 0.1 ng/ml",18.0 ± 2.83
same,Colony formation in soft agar,"[12]; U251cx43-217, MCP-1 1 ng/ml",24.5 ± 2.12
same,Colony formation in soft agar,"[12]; U251cx43-217, MCP-1 10 ng/ml",22.5 ± 3.53
same,Colony formation in soft agar,"[12]; U251cx43-217, MCP-1 100 ng/ml",20.5 ± 2.12
same,Colony formation in soft agar,"[13]; U251cx43-216, MCP-1 0.1 ng/ml",18.0 ± 2.83
same,Colony formation in soft agar,"[13]; U251cx43-216, MCP-1 1 ng/ml",37.5 ± 3.53
same,Colony formation in soft agar,"[13]; U251cx43-216, MCP-1 10 ng/ml",28.5 ± 4.95
same,Colony formation in soft agar,"[13]; U251cx43-216, MCP-1 100 ng/ml",36.0 ± 5.65
same,effect on apoptosis,[14],did not have any effect
